Results reported in PubChem BioAssay AID256 (DTP/NCI, 2004).
Values joined by “and” are separate entries in the source; they are usually repeats but may differ in a detail not shown here. Equal entries are not always repeated. Inconclusive results and toxic doses are left out.

Test system: CD2F1 mice, L1210 leukemia ip, survival T/C
Assay: NCI In Vivo Anticancer Drug Screen. Data for tumor model L1210 Leukemia (intraperitoneal) in CD2F1 (CDF1) mice
Details: higher = longer survival
In short: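 Antitumor effect is scored in animals hosting a serially transplanted tumor. Values compare compound-dosed animals against vehicle-only controls as a simple quotient.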

[1] = endpoint: mean survival time, dose: 100.0 mg/kg/injection, schedule: Q01DX009 (ip), vehicle: saline with Tween-80
[2] = endpoint: mean survival time, dose: 200.0 mg/kg/injection, schedule: Q01DX009 (ip), vehicle: saline with Tween-80

## O=C(CNC(=O)Nc1cccc(C(F)(F)F)c1)N/N=C/c1c(O)ccc2ccccc12
endpoint: mean survival time, dose: 12.5 mg/kg/injection, schedule: Q01DX009 (ip), vehicle: saline with Tween-80
  T/C: 94 % of control
endpoint: mean survival time, dose: 25.0 mg/kg/injection, schedule: Q01DX009 (ip), vehicle: saline with Tween-80
  T/C: 94 % of control
endpoint: mean survival time, dose: 50.0 mg/kg/injection, schedule: Q01DX009 (ip), vehicle: saline with Tween-80
  T/C: 94 % of control and 96 % of control
[1]
  T/C: 100 % of control
[2]
  T/C: 100 % of control

## O=C(SSCCSSCCSSC(=O)N1CCOCC1)N1CCOCC1
endpoint: mean survival time, dose: 100.0 mg/kg/injection, schedule: Q01DX001 (ip), vehicle: Klucel (hydroxypropylcellulose) (HPC)
  T/C: 93 % of control
endpoint: mean survival time, dose: 200.0 mg/kg/injection, schedule: Q01DX001 (ip), vehicle: Klucel (hydroxypropylcellulose) (HPC)
  T/C: 100 % of control
endpoint: mean survival time, dose: 400.0 mg/kg/injection, schedule: Q01DX001 (ip), vehicle: Klucel (hydroxypropylcellulose) (HPC)
  T/C: 93 % of control

## Cc1ccc(-n2c(=S)[nH]c3ccc(C)cc3c2=O)cc1
endpoint: mean survival time, dose: 0.38 mg/kg/injection, schedule: Q01DX009 (ip), vehicle: saline with Tween-80
  T/C: 90 % of control
endpoint: mean survival time, dose: 0.75 mg/kg/injection, schedule: Q01DX009 (ip), vehicle: saline with Tween-80
  T/C: 92 % of control
endpoint: mean survival time, dose: 1.5 mg/kg/injection, schedule: Q01DX009 (ip), vehicle: saline with Tween-80
  T/C: 98 % of control
endpoint: mean survival time, dose: 1.56 mg/kg/injection, schedule: Q01DX009 (ip), vehicle: saline with Tween-80
  T/C: 95 % of control
endpoint: mean survival time, dose: 25.0 mg/kg/injection, schedule: Q04DX003 (ip), vehicle: saline with Tween-80
  T/C: 92 % of control
endpoint: mean survival time, dose: 50.0 mg/kg/injection, schedule: Q04DX003 (ip), vehicle: saline with Tween-80
  T/C: 90 % of control
endpoint: mean survival time, dose: 100.0 mg/kg/injection, schedule: Q04DX003 (ip), vehicle: saline with Tween-80
  T/C: 87 % of control

## CSC(SC)=C(C#N)C#N
endpoint: mean survival time, dose: 12.5 mg/kg/injection, schedule: Q04DX002 (ip), vehicle: saline
  T/C: 102 % of control
endpoint: mean survival time, dose: 25.0 mg/kg/injection, schedule: Q04DX002 (ip), vehicle: saline
  T/C: 94 % of control
endpoint: mean survival time, dose: 50.0 mg/kg/injection, schedule: Q04DX002 (ip), vehicle: saline
  T/C: 92 % of control

## COc1cccc(NC(=S)/C(=C(\[O-])c2ccc([N+](=O)[O-])cc2)[n+]2ccc(C(C)C)cc2)c1
[1]
  T/C: 95 % of control
[2]
  T/C: 93 % of control

## O=[N+]([O-])c1cc(-c2nnc(-c3ccc(Cl)c([N+](=O)[O-])c3)o2)ccc1Cl
endpoint: mean survival time, dose: 50.0 mg/kg/injection, schedule: Q04DX002 (ip), vehicle: saline with Tween-80
  T/C: 100 % of control
endpoint: mean survival time, dose: 100.0 mg/kg/injection, schedule: Q04DX002 (ip), vehicle: saline with Tween-80
  T/C: 100 % of control
endpoint: mean survival time, dose: 200.0 mg/kg/injection, schedule: Q04DX002 (ip), vehicle: saline with Tween-80
  T/C: 96 % of control
endpoint: mean survival time, dose: 400.0 mg/kg/injection, schedule: Q04DX002 (ip), vehicle: saline with Tween-80
  T/C: 100 % of control

## CCOC/C(O)=C(\C#N)c1ccc(Cl)cc1
endpoint: mean survival time, dose: 12.5 mg/kg/injection, schedule: Q01DX009 (ip), vehicle: other
  T/C: 94 % of control and 104 % of control
endpoint: mean survival time, dose: 12.5 mg/kg/injection, schedule: Q04DX003 (ip), vehicle: other
  T/C: 104 % of control
endpoint: mean survival time, dose: 25.0 mg/kg/injection, schedule: Q01DX001 (ip), vehicle: other
  T/C: 93 % of control
endpoint: mean survival time, dose: 25.0 mg/kg/injection, schedule: Q01DX009 (ip), vehicle: other
  T/C: 95 % of control and 100 % of control
endpoint: mean survival time, dose: 25.0 mg/kg/injection, schedule: Q04DX002 (ip), vehicle: other
  T/C: 116 % of control and 111 % of control
endpoint: mean survival time, dose: 25.0 mg/kg/injection, schedule: Q04DX003 (ip), vehicle: other
  T/C: 101 % of control
endpoint: mean survival time, dose: 50.0 mg/kg/injection, schedule: Q01DX001 (ip), vehicle: other
  T/C: 100 % of control
endpoint: mean survival time, dose: 50.0 mg/kg/injection, schedule: Q01DX009 (ip), vehicle: other
  T/C: 93 % of control and 95 % of control
endpoint: mean survival time, dose: 50.0 mg/kg/injection, schedule: Q04DX002 (ip), vehicle: other
  T/C: 94 % of control and 99 % of control
endpoint: mean survival time, dose: 50.0 mg/kg/injection, schedule: Q04DX003 (ip), vehicle: other
  T/C: 101 % of control

## COc1cccc(OC)c1C1=CCCCCC1
endpoint: mean survival time, dose: 100.0 mg/kg/injection, schedule: Q01DX001 (ip), vehicle: saline with Tween-80
  T/C: 96 % of control
[1]
  T/C: 101 % of control
endpoint: mean survival time, dose: 200.0 mg/kg/injection, schedule: Q01DX001 (ip), vehicle: saline with Tween-80
  T/C: 98 % of control
[2]
  T/C: 97 % of control
endpoint: mean survival time, dose: 400.0 mg/kg/injection, schedule: Q01DX001 (ip), vehicle: saline with Tween-80
  T/C: 93 % of control
endpoint: mean survival time, dose: 400.0 mg/kg/injection, schedule: Q01DX009 (ip), vehicle: saline with Tween-80
  T/C: 104 % of control

## O=C(CNC(=O)Nc1cccc([N+](=O)[O-])c1)NNC(=O)Nc1ccccc1F
[1]
  T/C: 88 % of control
[2]
  T/C: 88 % of control

## Cn1c(=O)c(CC(O)C(Cl)(Cl)Cl)nc2ccccc21 (stereo not drawn)
endpoint: mean survival time, dose: 100.0 mg/kg/injection, schedule: Q04DX003 (ip), vehicle: Klucel (hydroxypropylcellulose) (HPC)
  T/C: 95 % of control
endpoint: mean survival time, dose: 200.0 mg/kg/injection, schedule: Q04DX003 (ip), vehicle: Klucel (hydroxypropylcellulose) (HPC)
  T/C: 95 % of control
endpoint: mean survival time, dose: 400.0 mg/kg/injection, schedule: Q04DX003 (ip), vehicle: Klucel (hydroxypropylcellulose) (HPC)
  T/C: 98 % of control

## CCC1(O)C(=O)OCc2c1cc1n(c2=O)Cc2cc3cc4c(cc3nc2-1)OCO4 (stereo not drawn)
endpoint: median survival time, dose: 1.0 mg/kg/injection, schedule: Q01DX005 (ip), vehicle: saline with Tween-80
  T/C: 192 % of control
endpoint: median survival time, dose: 2.0 mg/kg/injection, schedule: Q01DX005 (ip), vehicle: saline with Tween-80
  T/C: 114 % of control
endpoint: median survival time, dose: 2.0 mg/kg/injection, schedule: Q04DX002 (ip), vehicle: saline with Tween-80
  T/C: 325 % of control
endpoint: median survival time, dose: 4.0 mg/kg/injection, schedule: Q01DX005 (ip), vehicle: saline with Tween-80
  T/C: 101 % of control
endpoint: median survival time, dose: 4.0 mg/kg/injection, schedule: Q04DX002 (ip), vehicle: saline with Tween-80
  T/C: 190 % of control and 228 % of control
endpoint: median survival time, dose: 16.0 mg/kg/injection, schedule: Q04DX002 (ip), vehicle: saline with Tween-80
  T/C: 115 % of control and 124 % of control
endpoint: median survival time, dose: 32.0 mg/kg/injection, schedule: Q04DX002 (ip), vehicle: saline with Tween-80
  T/C: 97 % of control

## Brc1ccc(-c2csc3cccc[n+]23)cc1
endpoint: mean survival time, dose: 5.0 mg/kg/injection, schedule: Q04DX003 (ip), vehicle: saline with Tween-80
  T/C: 93 % of control
endpoint: mean survival time, dose: 10.0 mg/kg/injection, schedule: Q04DX003 (ip), vehicle: saline with Tween-80
  T/C: 104 % of control
endpoint: mean survival time, dose: 20.0 mg/kg/injection, schedule: Q04DX003 (ip), vehicle: saline with Tween-80
  T/C: 93 % of control

## CN1C(=O)[N+](C)(C)N=C1[O-]
endpoint: mean survival time, dose: 100.0 mg/kg/injection, schedule: Q04DX003 (ip), vehicle: saline
  T/C: 94 % of control
endpoint: mean survival time, dose: 200.0 mg/kg/injection, schedule: Q04DX003 (ip), vehicle: saline
  T/C: 97 % of control
endpoint: mean survival time, dose: 400.0 mg/kg/injection, schedule: Q04DX003 (ip), vehicle: saline
  T/C: 95 % of control

## CCCCCC[C@H]([C@H](C)O)n1cnc2c(N)ncnc21
endpoint: mean survival time, dose: 0.38 mg/kg/injection, schedule: Q03HX024 (ip), vehicle: saline with Tween-80
  T/C: 92 % of control
endpoint: mean survival time, dose: 0.57 mg/kg/injection, schedule: Q03HX024 (ip), vehicle: saline with Tween-80
  T/C: 96 % of control
endpoint: mean survival time, dose: 1.3 mg/kg/injection, schedule: Q03HX024 (ip), vehicle: saline with Tween-80
  T/C: 102 % of control
endpoint: mean survival time, dose: 2.0 mg/kg/injection, schedule: Q03HX024 (ip), vehicle: saline with Tween-80
  T/C: 98 % of control
endpoint: mean survival time, dose: 3.0 mg/kg/injection, schedule: Q03HX024 (ip), vehicle: saline with Tween-80
  T/C: 96 % of control
endpoint: mean survival time, dose: 4.5 mg/kg/injection, schedule: Q03HX024 (ip), vehicle: saline with Tween-80
  T/C: 98 % of control
endpoint: mean survival time, dose: 5.0 mg/kg/injection, schedule: Q03HX024 (ip), vehicle: saline with Tween-80
  T/C: 104 % of control
endpoint: mean survival time, dose: 6.25 mg/kg/injection, schedule: Q01DX009 (ip), vehicle: Klucel (hydroxypropylcellulose) (HPC)
  T/C: 95 % of control and 100 % of control
endpoint: mean survival time, dose: 10.0 mg/kg/injection, schedule: Q03HX024 (ip), vehicle: saline with Tween-80
  T/C: 107 % of control
endpoint: mean survival time, dose: 12.5 mg/kg/injection, schedule: Q01DX009 (ip), vehicle: Klucel (hydroxypropylcellulose) (HPC)
  T/C: 98 % of control and 100 % of control
endpoint: mean survival time, dose: 25.0 mg/kg/injection, schedule: Q01DX009 (ip), vehicle: Klucel (hydroxypropylcellulose) (HPC)
  T/C: 100 % of control and 101 % of control
endpoint: mean survival time, dose: 25.0 mg/kg/injection, schedule: Q03HX024 (ip), vehicle: saline with Tween-80
  T/C: 105 % of control
endpoint: mean survival time, dose: 50.0 mg/kg/injection, schedule: Q01DX009 (ip), vehicle: Klucel (hydroxypropylcellulose) (HPC)
  T/C: 97 % of control and 100 % of control
endpoint: mean survival time, dose: 50.0 mg/kg/injection, schedule: Q03HX024 (ip), vehicle: saline with Tween-80
  T/C: 105 % of control
endpoint: mean survival time, dose: 100.0 mg/kg/injection, schedule: Q01DX009 (ip), vehicle: Klucel (hydroxypropylcellulose) (HPC)
  T/C: 95 % of control and 100 % of control
endpoint: mean survival time, dose: 100.0 mg/kg/injection, schedule: Q03HX024 (ip), vehicle: saline with Tween-80
  T/C: 96 % of control
endpoint: mean survival time, dose: 200.0 mg/kg/injection, schedule: Q01DX009 (ip), vehicle: Klucel (hydroxypropylcellulose) (HPC)
  T/C: 100 % of control
endpoint: median survival time, dose: 25.0 mg/kg/injection, schedule: Q01DX009 (ip), vehicle: Klucel (hydroxypropylcellulose) (HPC)
  T/C: 96 % of control
endpoint: median survival time, dose: 50.0 mg/kg/injection, schedule: Q01DX009 (ip), vehicle: Klucel (hydroxypropylcellulose) (HPC)
  T/C: 101 % of control
endpoint: median survival time, dose: 100.0 mg/kg/injection, schedule: Q01DX009 (ip), vehicle: Klucel (hydroxypropylcellulose) (HPC)
  T/C: 97 % of control
